Drawing on ChEMBL document CHEMBL6103662, “Thiosulfonate-Based Targeted Covalent Cruzipain Inhibitors with Enhanced Bioactivity Translation for Antichagasic Therapy” (ACS Med Chem Lett, 2025), this text covers inhibition, IC50 and viability for 16 compounds.

Active and inactive are the calls of the source. No cut-off for these calls is given here.

Series [1] has as its target Cruzipain (Trypanosoma cruzi) (UniProt P25779). Nature of the series: Inhibition of recombinant Trypanosoma cruzi Cruzain at 100 uM using Z-FR-AMC as substrate preincubated for 10 mins followed by substrate addition and measured at 5 secs interval for 10 mins by fluorimetry relative to control. Particulars: time 20.0 min.
Series [2] addresses Cruzipain (Trypanosoma cruzi, UniProt P25779). Nature of the series: Inhibition of recombinant Trypanosoma cruzi Cruzain using Z-FR-AMC as substrate preincubated for 10 mins followed by substrate addition and measured at 5 secs interval for 10 mins by fluorimetry.
The subject of series [3] is Trypanosoma cruzi. Description: Antitrypanosomal activity against Trypanosoma cruzi Tulahuen trypomastigotes expressing Escherichia coli beta-galactosidase infected in Vero cells at 50 uM measured after 72 hrs by beta-galactosidase based assay relative to control. The format is functional.
For series [4], the system named is Trypanosoma cruzi. Description: Antitrypanosomal activity against Trypanosoma cruzi Tulahuen trypomastigotes expressing Escherichia coli beta-galactosidase infected in Vero cells at 1 uM measured after 72 hrs by beta-galactosidase based assay relative to control. The format is functional.
The target in series [5] is Cruzipain (Trypanosoma cruzi) (UniProt P25779). Description: Inhibition of recombinant Trypanosoma cruzi Cruzain at 100 uM using Z-FR-AMC as substrate measured at 5 secs interval for 10 mins by fluorimetry relative to control.
For series [6], the target named is cathepsin L (Homo sapiens, UniProt P07711). Nature of the series: Inhibition of recombinant human cathepsin L at 100 uM using Z-FR-AMC as substrate preincubated for 10 mins followed by substrate addition and measured for 20 mins by fluorimetry relative to control. Particulars: probe Z-FR-AMC, time 30 min.
In series [7] the test system is Trypanosoma cruzi. Description: Antitrypanosomal activity against Trypanosoma cruzi Tulahuen trypomastigotes expressing Escherichia coli beta-galactosidase infected in Vero cells at 10 uM measured after 72 hrs by beta-galactosidase based assay relative to control. The class given is functional.
Series [8] in a line: Cytotoxicity against African green monkey Vero cells assessed as cell viability at 50 uM measured after 96 hrs by Alamar blue assay relative to control. The format is toxicity, cell-based. Particulars: chlorocebus sabaeus, read-out: Activity.
In series [9] the target is Cruzipain (Trypanosoma cruzi) (UniProt P25779). Nature of the series: Inhibition of recombinant Trypanosoma cruzi Cruzain at 10 x IC50 using Z-FR-AMC as substrate preincubated for 30 mins followed by 100-fold dilution with assay buffer containing substrate and measured up to 15 mins by fluorescence based jump dilution assay. Particulars: time 45.0 min.
The target is the same in series [10]. Description: Reversible inhibition of recombinant Trypanosoma cruzi Cruzain assessed as recovery of enzyme activity at 10 x IC50 using Z-FR-AMC as substrate preincubated for 30 mins followed by 100-fold dilution with assay buffer containing substrate and measured after 15 to 120 mins by fluorescence based jump dilution assay. Particulars: time 150.0 min.
For series [11], the system named is Trypanosoma cruzi. Nature of the series: Antitrypanosomal activity against Trypanosoma cruzi Tulahuen trypomastigotes expressing Escherichia coli beta-galactosidase infected in Vero cells measured after 72 hrs by beta-galactosidase based assay. The format is functional, organism-based.
Series [12] deals with Trypanosoma cruzi. Description: Trypanocidal activity against Trypanosoma cruzi. The class given is functional, organism-based.

cathepsin L, sequence (P07711 whole entry): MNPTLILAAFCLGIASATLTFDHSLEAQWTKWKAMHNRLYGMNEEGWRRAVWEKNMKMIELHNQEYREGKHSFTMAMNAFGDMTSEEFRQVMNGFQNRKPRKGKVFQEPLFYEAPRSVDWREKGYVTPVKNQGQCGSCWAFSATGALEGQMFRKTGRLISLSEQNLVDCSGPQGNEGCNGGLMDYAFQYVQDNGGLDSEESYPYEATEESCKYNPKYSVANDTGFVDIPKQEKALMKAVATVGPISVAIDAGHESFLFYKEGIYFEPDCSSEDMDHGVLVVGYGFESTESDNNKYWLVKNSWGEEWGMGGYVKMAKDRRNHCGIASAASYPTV
Cruzipain, sequence (P25779 whole entry): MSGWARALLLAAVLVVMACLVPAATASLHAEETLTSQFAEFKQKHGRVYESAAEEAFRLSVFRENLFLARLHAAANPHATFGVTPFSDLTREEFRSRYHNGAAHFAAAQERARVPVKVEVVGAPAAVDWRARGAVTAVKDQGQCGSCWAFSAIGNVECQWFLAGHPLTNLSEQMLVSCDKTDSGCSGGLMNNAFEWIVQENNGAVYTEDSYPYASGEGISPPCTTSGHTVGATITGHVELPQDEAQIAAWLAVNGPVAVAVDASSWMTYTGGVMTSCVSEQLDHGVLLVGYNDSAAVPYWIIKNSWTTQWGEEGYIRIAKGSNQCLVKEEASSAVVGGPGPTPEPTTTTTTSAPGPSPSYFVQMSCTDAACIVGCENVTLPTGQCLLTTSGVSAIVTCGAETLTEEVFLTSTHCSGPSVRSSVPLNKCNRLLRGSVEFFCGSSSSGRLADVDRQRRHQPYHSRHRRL
Cruzipain (Trypanosoma cruzi), sequence (P25779 123-467 limits assumed): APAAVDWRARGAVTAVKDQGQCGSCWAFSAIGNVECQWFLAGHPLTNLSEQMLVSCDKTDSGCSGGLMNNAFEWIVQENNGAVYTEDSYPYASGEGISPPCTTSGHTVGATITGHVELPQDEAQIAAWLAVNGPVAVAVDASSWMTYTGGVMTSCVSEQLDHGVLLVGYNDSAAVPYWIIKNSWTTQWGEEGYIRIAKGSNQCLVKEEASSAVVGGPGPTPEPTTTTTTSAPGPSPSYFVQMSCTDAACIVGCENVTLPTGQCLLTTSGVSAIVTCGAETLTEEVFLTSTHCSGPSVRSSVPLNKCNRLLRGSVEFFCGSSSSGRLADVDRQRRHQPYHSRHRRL

As for `O=C[C@H](Cc1ccccc1)n1cc(C(NCc2ccc3c(c2)OCO3)C2CCCCC2)nn1` (stereo partly drawn), the inhibition in [1] was found to be 64%. Besides, the IC50 in [2] amounted to 41 µM. For the same compound, at 50 µM the inhibition in [3] was 10%.
`CCOC(=O)[C@H](CSS(=O)(=O)c1ccccc1)n1cc(C(NCc2ccc3c(c2)OCO3)C2CCCCC2)nn1` (stereo partly drawn) returned an inhibition at 1 µM in series [4] of 14%. Also, the inhibition in series [1] is 92%; in series [5], 39%; in [9] it was “Active; Showed Near-Zero Slope”; in [10] it was “Active; Gradual Recovery Of Enzyme Activity Observed”. The IC50 in series [2] is 2.7 µM. The inhibition at 20 min, 100 µM in [6] came out at 47%. Besides, in series [3], the inhibition at 50 µM was 100%. In series [7], this compound showed an inhibition at 10 µM of 96%. In addition, the viability at 96 h, 50 µM in series [8] was determined as 87%.
With `CCCCC(c1cn([C@@H](CSS(=O)(=O)c2ccccc2)C(=O)OCC)nn1)N1CCc2ccccc2C1` (stereo partly drawn), the inhibition in [1] worked out at 76%. The concentration for half-maximal inhibition (IC50) in [2] came out at 25 µM. The inhibition at 20 min, 100 µM in [6] was found to be 0%. In addition, 50 µM produced 91.7% inhibition in [3]. The same compound gave an inhibition at 10 µM in series [7] of 31%. Further, the viability at 96 h, 50 µM in [8] was found to be 82%.
On to `O=C(O)[C@H](CSS(=O)(=O)c1ccccc1)n1cc(C(NCc2ccc3c(c2)OCO3)C2CCCCC2)nn1` (stereo partly drawn), for which the inhibition in [1] is 41%.
In turn, `CCOC(=O)[C@H](CSS(=O)(=O)c1ccccc1)n1cc(C(NCc2ccc3c(c2)OCO3)C(CC)CC)nn1` (stereo partly drawn) registered an inhibition at 1 µM in [4] of 0%. The inhibition in series [1] was 56%. Besides, in series [2], the 50% inhibitory concentration (IC50) was determined as 24 µM. The inhibition at 20 min, 100 µM in [6] worked out at 2%. In series [3], this compound returned an inhibition at 50 µM of 97%. This compound yielded an inhibition at 10 µM in series [7] of 91%. Also, in [8], the viability at 96 h, 50 µM turned out to be 70%.
As for `O=C(O)[C@H](CSS(=O)(=O)c1ccccc1)n1cc(C(C2CCCCC2)N2CCc3ccccc3C2)nn1` (stereo partly drawn), the inhibition in [1] was 28%.
Turning to `COc1ccc(COC(=O)[C@H](CSS(=O)(=O)c2ccccc2)n2cc(C(NCc3ccc4c(c3)OCO4)C3CCCCC3)nn2)cc1` (stereo partly drawn), the inhibition came out at 50% in series [1] and 7% in [5]. Also, in [6], the inhibition at 20 min, 100 µM was 16%. Moreover, the inhibition at 50 µM in [3] was 5%. The viability at 96 h, 50 µM in series [8] is 97%.
In series [4], `CCOC(=O)[C@H](CSS(=O)(=O)c1ccccc1)n1cc(C(C2CCCCC2)N2CCc3ccccc3C2)nn1` (stereo partly drawn) registered an inhibition at 1 µM of 0%. Besides, the inhibition in series [1] was 80%. Moreover, the IC50 in series [2] came out at 13.7 µM. Further, the inhibition at 20 min, 100 µM in series [6] came to 8%. Moreover, the inhibition at 50 µM in series [3] came to 91%. The same compound showed an inhibition at 10 µM in series [7] of 77%. Also, in series [8], the viability at 96 h, 50 µM came to 87%.
Take `CCC(CC)C(NCc1ccc2c(c1)OCO2)c1cn([C@@H](CSS(=O)(=O)c2ccccc2)C(=O)O)nn1` (stereo partly drawn): the inhibition in series [1] amounted to 33%.
Take `CC(C)[C@H](CSS(=O)(=O)c1ccccc1)n1cc(C(NCc2ccc3c(c2)OCO3)C2CCCCC2)nn1` (stereo partly drawn): the figures for the inhibition in series [1] and in series [5] were 73% and 20%, respectively. Besides, the IC50 turned out to be 4 µM in series [2] and 7.8 µM in series [11]. Besides, the inhibition at 20 min, 100 µM in series [6] is 0%. Besides, the inhibition at 50 µM in [3] worked out at 100%. This compound also returned an inhibition at 10 µM in series [7] of 93%. Moreover, the viability at 96 h, 50 µM in series [8] came out at 75%. In series [10], the inhibition result was “Active”.
Take `CCOC(=O)[C@H](Cc1ccccc1)n1cc(C(NCc2ccc3c(c2)OCO3)C2CCCCC2)nn1` (stereo partly drawn): the inhibition in series [1] is 15%.
In turn, `COC(=O)[C@H](CSS(=O)(=O)c1ccccc1)n1cc(C(NCc2ccc3c(c2)OCO3)C2CCCCC2)nn1` (stereo partly drawn) yielded an inhibition at 1 µM in series [4] of 3%. The inhibition in series [1] came out at 83%; in series [5], 55%. Further, the IC50 in series [2] turned out to be 12 µM. Moreover, in series [6], the inhibition at 20 min, 100 µM is 55%. This compound gave an inhibition at 50 µM in [3] of 100%. The inhibition at 10 µM in series [7] was 90%. The viability at 96 h, 50 µM in series [8] was found to be 82%.
As for `COC(=O)[C@H](CSS(=O)(=O)c1ccccc1)n1cc(C(NCc2ccc3c(c2)OCO3)C2CCCC2)nn1` (stereo partly drawn), testing at 1 µM in [4] gave an inhibition of 2%. Moreover, the inhibition in series [1] was 90%. Further, the IC50 in series [2] was 9.7 µM. In addition, the inhibition at 20 min, 100 µM in series [6] is 23%. For the same compound, testing at 50 µM in [3] gave an inhibition of 98%. Besides, the inhibition at 10 µM in [7] worked out at 88%. Further, the viability at 96 h, 50 µM in [8] came to 53%.
As to `O=S(=O)(SC[C@@H](Cc1ccccc1)n1cc(C(NCc2ccc3c(c2)OCO3)C2CCCCC2)nn1)c1ccccc1` (stereo partly drawn), the results for the inhibition in series [1] and in series [5] were 86% and 39%, respectively. Besides, the IC50 was found to be 2.2 µM in series [2] and 1.9 µM in series [11]. Moreover, in series [6], the inhibition at 20 min, 100 µM worked out at 13%. In series [3], this compound returned an inhibition at 50 µM of 99.9%. Moreover, at 10 µM the inhibition in [7] was 91%. The viability at 96 h, 50 µM in series [8] was 100%. The inhibition entry in series [10] was “Active”.
For the compound `CCCCC(NCc1ccc2c(c1)OCO2)c1cn([C@@H](CSS(=O)(=O)c2ccccc2)C(=O)OCC)nn1` (stereo partly drawn), at 1 µM the inhibition in [4] was 10.7%. Also, the inhibition in series [1] was determined as 92%. The IC50 in series [2] amounted to 3.2 µM. Also, the inhibition at 20 min, 100 µM in series [6] is 84%. Besides, in [3], the inhibition at 50 µM stood at 97%. The inhibition at 10 µM in [7] was 83%. Further, in series [8], the viability at 96 h, 50 µM is 63%.
Regarding `O=C(Cn1ccnc1[N+](=O)[O-])NCc1ccccc1` [BENZNIDAZOLE], the IC50 in series [12] amounted to 1.45 µM.
